For experiment [1], the target named is bovine serum albumin (BSA) (Bos taurus, UniProt P02769). In words: BSA fluorescence quenching. The format is binding. Also on record: Affinity constant K ± SD: unit not given here. The following applies: for Affinity constant K ± SD: fluorescence quenching, HypSpec2014, 1:1 species assumed. As to the method:
To evaluate the interaction of the compounds, both organic and Cu(II) complexes, with bovine serum albumin (BSA) fluorescence spectra were measured. In a typical fluorescence experiment, to a solution of 1.5 μM of BSA in the same buffer, successive aliquots of a stock solution of each compound in DMSO were added directly to the cuvette (optical path 1.0 cm). The fluorescence emission was recorded between 310 and 600 nm with excitation at 295 nm. The final DMSO % was kept below 2% (v/v). The Stern-Volmer plots were built using the emission at 340 nm and blank samples (in the absence of BSA) with the same concentration of the complexes were recorded and subsequently subtracted from the corresponding emission spectra containing the fluorophore. Moreover, the fluorescence emission intensity was corrected for reabsorption and inner filter effects using UV-Vis absorption data recorded for each sample, since all complexes absorb in the measured wavelength range (19, 20).
The interaction of the organic compounds and Cu(II) complexes with BSA was monitored by studying the quenching of albumin’s fluorescence emission with increasing concentrations of the complexes (25). Overall, the intensity of the Trp emission decreases with the addition of the complexes, except for 8 (see Figs. S19). The Stern-Volmer relationship was used to analyse the fluorescence quenching process:
where I0 and I are the fluorescence intensities in the absence and in the presence of quencher, kq is the bimolecular quenching rate, τ0 is the fluorophore lifetime in the absence of the quencher (6.22 ns) (26) and [Q] is the quencher concentration. […] This linear relationship is obeyed for all complexes except 5, where a downward curvature is observed. This can be an indication of two distinct binding sites, corresponding to two populations of fluorophores, one being accessible and other inaccessible or buried inside the protein. In such cases, the Stern-Volmer relation can be modified to (27):
where ΔI = I0 – I, Ka is the Stern-Volmer constant for the accessible fraction and fa is the fraction of accessible fluorophore. […] As first approximation, the total concentration of quencher was used to check the quenching mechanism. […] As all systems presented high absorbance values in the measured range of wavelengths, no excess of quencher was used and, therefore, 1:1 species will be assumed for these interactions.

Another experiment deals with A-549 cells. The experiment is described as follows: Sulforhodamine B (SRB) cell viability assay. The format is cell-based. Conditions: 72 h.
Another experiment has as its system A-375 cells. The experiment is described as follows: Sulforhodamine B (SRB) cell viability assay. In kind it is cell-based. Conditions: 72 h.
Experiment [2] concerns Klebsiella pneumoniae ATCC 49619. In words: MIC determination. The format is cell-based. The following applies: K. pneumoniae; 18 h. As to the method: (§1) Wild-type Escherichia coli K-12 AG100 strain [argE3 thi-1 rpsL xyl mtl Δ(gal-uvrB) supE44] expressing the AcrAB TolC efflux pump at its basal level and Klebsiella pneumoniae ATCC 49619 Gram-negative strains were studied in the experiments. Sensitive (ATCC 25928) and the methicillin-resistant (MRSA 272123) subspecies of Staphylococcus aureus were used as Gram-positive strains in the assays.
(§2) Minimum inhibitory concentration (MIC) values of selected compounds were determined in 96-well plates based on the Clinical and Laboratory Standard Institute guidelines (CLSI guidelines). The stock solutions of the compounds were dissolved in DMSO using 1.3 μL of Mueller Hinton Broth, and then two-fold serial dilutions were performed. The starting concentration of the compounds was 100 μM. Then 10^‒4 dilution of an overnight bacterial culture in 100 μL of medium was added to each well, except for the medium control wells.

The test system of experiment [3] is Escherichia coli K-12 AG100. In words: MIC determination. In kind it is cell-based. Conditions: E. coli; 18 h. As to the method:
as §1, §2

The subject of a further experiment is calf thymus DNA (ctDNA). The experiment is described as follows: ctDNA thermal denaturation. Conditions: for ΔTm: equimolar amounts of compound and DNA, HEPES 0.01 M, pH 7.4; for melting temperature Tm of ctDNA with compound: equimolar mixtures (25 µM), 10 mM HEPES pH 7.4, 1.5% DMSO. The format is binding. An excerpt:
Nucleic acids are potential targets for metallodrugs and, consequently, evaluation of the interactions of the compounds with DNA and corresponding binding strength is relevant under the scope of this work. Thermal denaturation is a useful technique to measure the stability of the secondary structure of DNA (29). Under the chosen experimental conditions (HEPES, 0.01 M, pH 7.4), it is possible to follow the denaturation of calf thymus DNA (ctDNA) double strand.

In another experiment the test system is S. aureus ATCC 25928. In words: MIC determination. The format is cell-based, Staphylococcus aureus. The following applies: S. aureus ATCC 25928 (sensitive); 18 h. As to the method:
as §1, §2

In general, IC50 refers to the point on the concentration scale where inhibition reaches its midpoint. Broadly, the MIC is the smallest concentration in the dilution series that meets the test's criterion for growth inhibition. The ΔTm is the shift of the melting midpoint relative to a reference.

Sequence of bovine serum albumin (BSA) (P02769 25-607): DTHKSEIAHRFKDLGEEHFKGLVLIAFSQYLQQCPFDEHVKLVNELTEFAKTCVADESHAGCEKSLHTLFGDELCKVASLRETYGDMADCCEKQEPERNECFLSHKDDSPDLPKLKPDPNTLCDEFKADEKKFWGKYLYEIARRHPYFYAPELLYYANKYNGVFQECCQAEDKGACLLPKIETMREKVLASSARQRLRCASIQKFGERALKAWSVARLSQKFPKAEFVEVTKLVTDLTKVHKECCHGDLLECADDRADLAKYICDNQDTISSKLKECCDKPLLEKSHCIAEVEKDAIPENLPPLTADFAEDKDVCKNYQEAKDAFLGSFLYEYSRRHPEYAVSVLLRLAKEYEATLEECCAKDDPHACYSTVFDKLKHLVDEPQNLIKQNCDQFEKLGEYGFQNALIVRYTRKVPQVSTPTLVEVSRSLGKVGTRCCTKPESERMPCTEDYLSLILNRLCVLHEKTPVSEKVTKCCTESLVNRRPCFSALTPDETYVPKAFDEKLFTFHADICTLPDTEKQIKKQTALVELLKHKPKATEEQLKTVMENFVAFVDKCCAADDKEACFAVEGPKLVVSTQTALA

For `CC(=O)[O-].O=C(NN=Cc1ccc2cccc([O-])c2n1)c1ccccc1.[Cu+2]` [Complex 1, [Cu(HL^1)(AcO)]], in experiment [1], the “Affinity constant K ± SD” value is “(8.4 ± 6.6) × 10^7”. The IC50 with A-549 cells came out at 4.2 ± 0.2 µM; in the experiment on A-375 cells, 2.7 ± 0.03 µM. In addition, the MIC in experiment [2] was over 100 µM; in experiment [3] it was over 100 µM; against S. aureus ATCC 25928 it was 50 µM. For the same molecule, the ΔTm with calf thymus DNA (ctDNA) is over 25.0 °C.

Consider `[Cu+2].[O-]C(=NN=Cc1ccc2cccc([O-])c2n1)c1ccc(F)cc1` [Complex 3, [Cu(L^3)]3], for which the “Affinity constant K ± SD” value in experiment [1] is on record as “(3.4 ± 0.7) × 10^5”. Further, the concentration for half-maximal inhibition (IC50) was 8.9 ± 0.2 µM in the experiment with A-549 cells and 5.1 ± 0.3 µM in the experiment with A-375 cells. The MIC was over 100 µM in experiment [2], over 100 µM in experiment [3] and 100 µM with S. aureus ATCC 25928. Also, in the experiment on calf thymus DNA (ctDNA), the ΔTm was determined as 13.0 °C. In the experiment with calf thymus DNA (ctDNA), the “melting temperature Tm of ctDNA with compound” value was 73.2 ± 1.7 °C.

Turning to `COc1ccc(C([O-])=NN=Cc2ccc3cccc([O-])c3n2)cc1.[Cu+2]` [Complex 5, [Cu(L^5)]3], the “Affinity constant K ± SD” value in experiment [1] was “(1.05 ± 0.04) × 10^5”. The “Stern-Volmer constant for the accessible fraction Ka” value in experiment [1] (modified Stern-Volmer) was 2.1e+06 M⁻¹. The “fraction of accessible fluorophore fa” value in experiment [1] (modified Stern-Volmer) was 0.24. The values for the half-maximal inhibitory concentration (IC50) in the experiment with A-549 cells and in the experiment with A-375 cells were 5.1 ± 0.01 µM and 3.4 ± 0.1 µM, respectively. Besides, the MIC in experiment [2] is over 100 µM; in experiment [3], over 100 µM; with S. aureus ATCC 25928, 100 µM. The thermal shift (ΔTm) with calf thymus DNA (ctDNA) stood at 17.7 °C. Further, the “melting temperature Tm of ctDNA with compound” value in the experiment on calf thymus DNA (ctDNA) was 77.9 ± 1.3 °C.

These data come from PMC10072326, “Promising anticancer agents based on 8-hydroxyquinoline hydrazone copper(II) complexes” (Frontiers in Chemistry, 2023).
